Results reported in PMC10124904, “Activation of Gcn2 by small molecules designed to be inhibitors” (The Journal of Biological Chemistry, 2023).
Where “and” joins values, the source holds several entries; their conditions need not be identical. Equal entries are not always repeated.

Columns and labels:
Type in all cases: cell-based
Gcn2 [1] = molecular target: T1, Gcn2 (Homo sapiens, UniProt Q9P2K8); test: P(AAREx6)-Luc Atf4 transcriptional activity reporter in HEK293 cells; conditions: for dose response of Atf4 activity (P(AAREx6)-Luc): 2× serial dilution from 78 nM to 20 μM
T1 construct: HEK293 cells expressing endogenous WT Gcn2 (End WT); endogenous in cells; host or cells: HEK293 (HEK293A with integrated P(AAREx6)-Luc; HEK293/HEK293T)
T1 sequence (Q9P2K8 whole entry): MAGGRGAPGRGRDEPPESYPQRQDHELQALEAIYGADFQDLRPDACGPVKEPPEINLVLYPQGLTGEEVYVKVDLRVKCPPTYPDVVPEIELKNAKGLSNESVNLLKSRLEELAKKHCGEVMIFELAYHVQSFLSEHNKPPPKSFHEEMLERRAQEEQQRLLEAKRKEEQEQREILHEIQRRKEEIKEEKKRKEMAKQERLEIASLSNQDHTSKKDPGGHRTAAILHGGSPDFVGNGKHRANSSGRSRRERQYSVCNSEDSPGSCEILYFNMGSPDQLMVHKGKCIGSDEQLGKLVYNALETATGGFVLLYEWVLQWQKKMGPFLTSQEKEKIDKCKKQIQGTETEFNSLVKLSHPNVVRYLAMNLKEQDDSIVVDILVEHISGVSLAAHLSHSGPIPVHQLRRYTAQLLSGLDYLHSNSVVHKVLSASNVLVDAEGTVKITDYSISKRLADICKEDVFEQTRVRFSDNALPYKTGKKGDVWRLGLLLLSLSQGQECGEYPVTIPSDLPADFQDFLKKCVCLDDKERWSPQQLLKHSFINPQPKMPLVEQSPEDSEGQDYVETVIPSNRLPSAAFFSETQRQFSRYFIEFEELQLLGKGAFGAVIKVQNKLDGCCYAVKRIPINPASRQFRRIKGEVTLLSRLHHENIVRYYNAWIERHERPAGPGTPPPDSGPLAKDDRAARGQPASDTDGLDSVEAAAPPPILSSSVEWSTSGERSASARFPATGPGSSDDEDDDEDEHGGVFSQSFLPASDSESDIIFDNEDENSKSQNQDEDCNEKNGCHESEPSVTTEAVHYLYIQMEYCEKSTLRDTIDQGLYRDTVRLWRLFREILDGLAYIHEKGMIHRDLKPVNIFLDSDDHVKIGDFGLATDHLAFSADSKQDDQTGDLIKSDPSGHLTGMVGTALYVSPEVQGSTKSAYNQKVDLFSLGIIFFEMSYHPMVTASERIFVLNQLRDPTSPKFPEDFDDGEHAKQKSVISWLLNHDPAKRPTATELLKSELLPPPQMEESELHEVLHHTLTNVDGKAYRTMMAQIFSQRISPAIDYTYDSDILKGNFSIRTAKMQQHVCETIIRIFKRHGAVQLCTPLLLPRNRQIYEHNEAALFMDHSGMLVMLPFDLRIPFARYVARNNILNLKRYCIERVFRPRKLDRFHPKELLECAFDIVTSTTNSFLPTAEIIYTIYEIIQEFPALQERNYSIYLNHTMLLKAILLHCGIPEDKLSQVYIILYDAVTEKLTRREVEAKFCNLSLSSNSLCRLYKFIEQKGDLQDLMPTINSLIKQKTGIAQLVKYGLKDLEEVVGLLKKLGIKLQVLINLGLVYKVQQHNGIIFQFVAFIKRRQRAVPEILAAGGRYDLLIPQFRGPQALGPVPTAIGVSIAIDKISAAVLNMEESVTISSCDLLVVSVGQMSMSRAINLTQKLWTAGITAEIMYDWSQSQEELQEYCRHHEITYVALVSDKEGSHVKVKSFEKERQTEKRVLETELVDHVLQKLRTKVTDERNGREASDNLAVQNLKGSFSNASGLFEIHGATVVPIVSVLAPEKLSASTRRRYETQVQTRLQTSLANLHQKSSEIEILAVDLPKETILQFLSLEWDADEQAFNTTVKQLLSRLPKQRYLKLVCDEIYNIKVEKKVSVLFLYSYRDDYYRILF
Protocol: HEK-derived cells were used in this study. HEK293T cells were obtained from American Type Culture Collection. HEK293A cells were purchased from Invitrogen. Cells were cultured in Dulbecco's modified Eagle's medium (DMEM) (Corning 10-013-CV) supplemented with 10% (vol/vol) fetal bovine serum (Corning 35-010-CV), 100 U/ml penicillin, and 0.1 mg/ml streptomycin (Hyclone SV30010), hereafter referred to as DMEM complete, at 37 °C in 5% CO2 humidified incubator. […] To create cells stably expressing a luciferase reporter for Atf4 transcription activity, HEK293A cells were transduced with a lentivirus encoding an Atf4 transcription reporter (P(AAREx6)-Luc), which consists of six copies of C/ebp-Atf4 consensus binding sequence (5′-[…]-3′) upstream of a minimal promoter followed by the firefly luciferase coding sequence. Selection of the stable expression of the luciferase reporter was selected in DMEM complete supplemented with 1 μg/ml puromycin.
For transcriptional reporter assays, HEK293-P(AAREx6)-Luc cells were seeded into 96-well plate at 10,000 cells/well and cultured in DMEM complete at 37 °C with 5% CO2 overnight. After 24 h, cells were treated with HF or Gcn2iB, as indicated. After 6 h of culture, the media was replaced with 1:1 dilution of DMEM complete to Bio-Glo luciferase assay reagent (Promega Cat # G7940). The assay plate was incubated at room temperature for 15 min at 200 rpm on rotary plate shaker and then luminescence was read on BioTek Synergy H1 microplate reader using 1 s integration time and gain setting between 135 and 200. Luciferase activity was measured as luminescence for each of three experiments per treatment.

Gcn2 [2] = molecular target: T1, Gcn2; test: Immunoblot of ISR markers (p-Gcn2, p-eIF2α, Atf4) in HEK293 cells with endogenous Gcn2 (End. WT)
Flag-Gcn2 WT = molecular target: T2, Flag-Gcn2 WT (Homo sapiens, UniProt Q9P2K8); test: Atf4-Luc translational reporter, Gcn2 KO HEK293 cells expressing Flag-Gcn2 WT; conditions: 50 nM Gcn2iB vs vehicle, 6 h
T2 construct: Transomic Technologies) was inserted into pCDNA5; expressed in transfected cells; host or cells: HEK293 Gcn2 KO cells, transient transfection of pCDNA5-Gcn2
T2 sequence (Q9P2K8 whole entry): as above
Text: (§1) The human Gcn2 coding sequence from pENTR223-1 Gcn2 (NM_001013703; Transomic Technologies) was inserted into pCDNA5 to create an amino-terminal 3× flag tag fusion with Gcn2 by using an In-Fusion HD cloning kit and a three-way cloning reaction method. The resulting plasmid pCDNA5-Gcn2, referred to in the text as Flag-Gcn2, was used as a template to construct the mutant versions detailed in Table 1 by site-directed mutagenesis using an In-Fusion HD cloning kit (Takara Bio). The Gcn2 expressing plasmid was introduced transiently into the HEK293-Gcn2 KO cells as described in the following complementation section. Plasmid pMSCV-Gadd34-puro contains the human Gadd34 (PPP1R15A, NM_014330.5) gene subcloned into the NcoI/EcoRI sites of the retroviral vector pMSCV-puro ([24]).
(§2) For translational reporter assays, HEK293-Gcn2 KO cells were cotransfected with WT or mutant Gcn2 and the reporter Atf4-Luc and nano-luciferase plasmids and then treated with HF or Gcn2iB. Gcn2 activity was measured in a dual luciferase assay. To perform this experiment, HEK293-Gcn2 KO cells were seeded into 12-well plates at 50,000 cells/well. […] The Atf4-Luc and nano-luciferase signals were measured with Nano-Glo Dual-Luciferase Reporter Assay kit (Promega Cat #N1620) using a Turner Biosystems 20/20 luminometer. […]

Flag-Gcn2 K619A = molecular target: T3, Flag-Gcn2 K619A (Homo sapiens, UniProt Q9P2K8, K619A); test: Atf4-Luc translational reporter, Gcn2 KO HEK293 cells expressing Flag-Gcn2 K619A; conditions: 50 nM Gcn2iB, 1 μM neratinib, 2 μM dovitinib or 2 μM dabrafenib, 6 h
T3 construct: Transomic Technologies) was inserted into pCDNA5; expressed in transfected cells; host or cells: HEK293 Gcn2 KO cells, transient transfection
T3 sequence (Q9P2K8 whole entry K619A): as the sequence (Q9P2K8 whole entry) above, with K619A counted along it
Text: as §1
(§3) For translational reporter assays, HEK293-Gcn2 KO cells were cotransfected with WT or mutant Gcn2 and the reporter Atf4-Luc and nano-luciferase plasmids and then treated with HF or Gcn2iB. Gcn2 activity was measured in a dual luciferase assay. To perform this experiment, HEK293-Gcn2 KO cells were seeded into 12-well plates at 50,000 cells/well. […] For experiments with Gadd34 expression, 100 ng of vector control or Gadd34 expression plasmid was included in the transfection. […] The Atf4-Luc and nano-luciferase signals were measured with Nano-Glo Dual-Luciferase Reporter Assay kit (Promega Cat #N1620) using a Turner Biosystems 20/20 luminometer. Firefly luciferase activity was normalized to nano-luciferase control for each of three biological replicates.

[3] = molecular target: T4, Flag-Gcn2 M2 (F1143L/R1144L) (Homo sapiens, UniProt Q9P2K8, F1143L/R1144L); test: Atf4-Luc translational reporter, Gcn2 KO HEK293 cells expressing Flag-Gcn2 M2; conditions: 50 nM Gcn2iB, 1 μM neratinib, 2 μM dovitinib or 2 μM dabrafenib, 6 h
T4 construct: Transomic Technologies) was inserted into pCDNA5; expressed in transfected cells; host or cells: HEK293 Gcn2 KO cells, transient transfection
T4 sequence (Q9P2K8 whole entry F1143L/R1144L): as the sequence (Q9P2K8 whole entry) above, with F1143L, R1144L counted along it
Text: as §1, §2

Flag-Gcn2 M802F = molecular target: T5, Flag-Gcn2 M802F (Homo sapiens, UniProt Q9P2K8, M802F); test: Atf4-Luc translational reporter, Gcn2 KO HEK293 cells expressing Flag-Gcn2 M802F; conditions: Gcn2iB concentrations up to 4 μM, 6 h
T5 construct: Transomic Technologies) was inserted into pCDNA5; expressed in transfected cells; host or cells: HEK293 Gcn2 KO cells, transient transfection
T5 sequence (Q9P2K8 whole entry M802F): as the sequence (Q9P2K8 whole entry) above, with M802F counted along it
Text: as §1, §2

Flag-Gcn2 M802V = molecular target: T6, Flag-Gcn2 M802V (Homo sapiens, UniProt Q9P2K8, M802V); test: Atf4-Luc translational reporter, Gcn2 KO HEK293 cells expressing Flag-Gcn2 M802V; conditions: 4 nM Gcn2iB, 6 h
T6 construct: Transomic Technologies) was inserted into pCDNA5; expressed in transfected cells; host or cells: HEK293 Gcn2 KO cells, transient transfection
T6 sequence (Q9P2K8 whole entry M802V): as the sequence (Q9P2K8 whole entry) above, with M802V counted along it
Text: as §1, §2

Flag-Gcn2 T899A = molecular target: T7, Flag-Gcn2 T899A (Homo sapiens, UniProt Q9P2K8, T899A); test: Atf4-Luc translational reporter, Gcn2 KO HEK293 cells expressing Flag-Gcn2 T899A; conditions: 6 h; for increase in Atf4-Luc activity: T899A Gcn2, 50 nM Gcn2iB, 1 μM neratinib, 2 μM dovitinib or 2 μM dabrafenib
T7 construct: Transomic Technologies) was inserted into pCDNA5; expressed in transfected cells; host or cells: HEK293 Gcn2 KO cells, transient transfection
T7 sequence (Q9P2K8 whole entry T899A): as the sequence (Q9P2K8 whole entry) above, with T899A counted along it
Text: as §1, §3

Gcn2 [4] = molecular target: T1, Gcn2; test: Atf4-Luc translational reporter in HEK293 cells (endogenous Gcn2); conditions: 6 h
[5] = Gcn2iB pretreatment 30 min, then 12.5 nM HF 6 h
[6] = 25 nM HF, time course up to 6 h
[7] = 2 μM tunicamycin, 6 h, immunoblot

COc1ncc(Cl)cc1S(=O)(=O)Nc1ccc(F)c(C#Cc2cnc(N)nc2)c1F [Gcn2iB]
effect on HF-induced P(AAREx6)-Luc activity (Gcn2 [1]; 25 nM HF + 2 μM Gcn2iB, 6 h): sharply reduced | Gcn2iB concentration at peak induction of luciferase activity (Gcn2 [1]; Gcn2iB only, absence of HF, 6 h): about 32 nM | peak induction of luciferase activity (P(AAREx6)-Luc) (Gcn2 [1]; Gcn2iB only, absence of HF, 6 h, biphasic): 7.8 fold | IC50 (Gcn2 [1]; Gcn2iB pretreatment 30 min, then 12.5 nM HF 6 h, read-out: IC50 for diminishing HF-induced P(AAREx6)-Luc luciferase signal): 73 nM | time of maximal Atf4 expression (Gcn2 [2]; 50 nM Gcn2iB time course up to 6 h, WT cells): 6 h | induction of p-eIF2α (Gcn2 [2]; 50 nM Gcn2iB time course, WT cells, detected as early as 30 min): 2.7 fold | Gcn2iB concentration giving reductions in HF-induced Atf4 (Gcn2 [2]; [5]): ≥ 250 nM | Gcn2iB concentration giving reductions in HF-induced p-Gcn2 (Gcn2 [2]; [5]): ≥ 62.5 nM | Gcn2iB concentration above which p-Gcn2 was lowered below vehicle and Atf4 not appreciably induced (Gcn2 [2]; absence of HF, 6 h): Above 250 nM | Levels Atf4-Luc, fold change upon treatment (Flag-Gcn2 WT): 2.7 fold and 3 fold | increase in Atf4-Luc activity (Flag-Gcn2 K619A): no increase | increase in Atf4-Luc activity [3]: able to increase Atf4-Luc activity | Atf4-Luc activity in Gcn2iB dose response (Flag-Gcn2 M802F): maintained the same level of Atf4-Luc activity | increase in Atf4-Luc activity relative to untreated M802V cells (Flag-Gcn2 M802V): 2 fold | Levels Atf4-Luc, fold change upon treatment (Flag-Gcn2 T899A; 50 nM Gcn2iB vs vehicle, Flag-Gcn2 T899A): 2.8 fold | increase in Atf4-Luc activity (Flag-Gcn2 T899A): able to increase Atf4-Luc activity | effect on HF-induced Atf4-Luc expression (Gcn2 [4]; 25 nM HF + 2 μM Gcn2iB): sharply diminished

O=C(COc1ccc(Cl)c(F)c1)NC12CC(NC(=O)c3cnc(C(F)F)cn3)(C1)C2 [2B-Act]
effect on biphasic induction of luciferase activity by Gcn2iB (Gcn2 [1]; pretreated 30 min with 1 μM A-92 or 2 μM 2B-Act, then Gcn2iB 6 h): ablated | effect of cotreatment on Gcn2iB-induced p-eIF2α and Atf4 levels (Gcn2 [2]; 1 μM A-92 or 2 μM 2B-Act pretreatment 30 min, then 50 nM Gcn2iB 6 h): lowered p-eIF2α and Atf4 levels

O=C(CC1NCCCC1O)Cn1cnc2cc(Br)c(Cl)cc2c1=O (stereo not drawn) [HF, Halofuginone]
increase in luciferase signal (P(AAREx6)-Luc) (Gcn2 [1]; 12.5 nM HF, 6 h): approximately 30 fold | P(AAREx6)-Luc activity (Gcn2 [1]; 25 nM HF alone, 6 h): robust induction | time at which expression of Atf4 was enhanced (Gcn2 [2]; [6]): 1 h | time to increased p-Gcn2 and p-eIF2α (Gcn2 [2]; [6]): ≤ 30 min | Atf4 levels (Gcn2 [2]; 100 nM HF, 6 h, immunoblot): significant reduction | Atf4-Luc expression (Gcn2 [4]; 25 nM HF alone): robust induction

CCOc1cc2ncc(C#N)c(Nc3ccc(OCc4ccccn4)c(Cl)c3)c2cc1NC(=O)/C=C/CN(C)C [neratinib]
dose response of Atf4 activity (P(AAREx6)-Luc) (Gcn2 [1]; 6 h): biphasic induction | increase in Atf4-Luc activity (Flag-Gcn2 K619A): no increase | increase in Atf4-Luc activity [3]: able to increase Atf4-Luc activity | increase in Atf4-Luc activity (Flag-Gcn2 T899A): able to increase Atf4-Luc activity

tunicamycin
p-eIF2α and Atf4 (Gcn2 [2]; [7]): induced p-eIF2α and Atf4 | phosphorylation of Gcn2 (T899) (Gcn2 [2]; [7]): minimal phosphorylation of Gcn2

CN1CCN(c2ccc3nc(-c4c(N)c5c(F)cccc5[nH]c4=O)[nH]c3c2)CC1 [dovitinib]
dose response of Atf4 activity (P(AAREx6)-Luc) (Gcn2 [1]; 6 h): biphasic induction | increase in Atf4-Luc activity (Flag-Gcn2 K619A): no increase
